Read-outs that look alike come from different tables or passages of the source.
What was measured:
Experiment in all cases: Antibacterial activity against clinically isolated β-lactamase (cephalosporinase) producing strains (MIC)
Type in all cases: cell-based
[1] = tested on: Proteus morganii GN 5307; settings: cephalosporinase producing strain, SDA, 18 to 20 hours
Protocol: (§1) The antibacterial activities against clinically isolated β-lactamase producing strains were tested by the agar plate dilution method in accordance with the standard method of The Japanese Chemotherapy Society [Chemotherapy, Vol. 29, 76-79 (1981)]. A solution of a cephalosporinase producing strain stored by Episome Research Institute, prepared by incubating the strain in a sensitivity test broth (STB; product of Nissui K. K.) for 18 hours, was diluted with a fresh STB solution so that the solution contained 10⁶ cells per milliliter. The diluted solution was then inoculated as spots in a microplanter on a sensitivity disk agar-N (SDA; product of Nissui K. K.) containing a test compound. The disk agar was then incubated for 18 to 20 hours. The minimum inhibitory concentration was determined as a minimum concentration in which the test microorganism no longer grew after a 18 to 20-hour incubation.

[2] = tested on: Escherichia coli No. 96; settings: cephalosporinase producing strain, SDA, 18 to 20 hours, read-out: MIC
Protocol: as §1

[3] = tested on: Citrobactor freundii GN 346; settings: cephalosporinase producing strain, SDA, 18 to 20 hours
Protocol: as §1

[4] = tested on: Pseudomonas cepacia GN 11164; settings: Burkholderia cepacia, GN11164, cephalosporinase producing strain, SDA, 18 to 20 hours, read-out: MIC
Protocol: as §1

[5] = tested on: Providencia rettgeri GN 4762; settings: Providencia rettgeri, GN4762, Providencia rettgeri GN 4762; cephalosporinase producing strain, SDA, 18 to 20 hours; read-out: MIC
Protocol: as §1

[6] = tested on: Pseudomonas aeruginosa GN 918; settings: GN918; Pseudomonas aeruginosa GN 918; cephalosporinase producing strain, SDA, 18 to 20 hours; read-out: MIC
Protocol: as §1

[7] = tested on: Klebsiella oxytoca GN 10650; settings: Klebsiella oxytoca, GN10650, Klebsiella oxytoca GN 10650; cephalosporinase producing strain, SDA, 18 to 20 hours; read-out: MIC
Protocol: as §1

[8] = tested on: Proteus vulgaris GN 76; settings: Proteus vulgaris, GN76, Proteus vulgaris GN 76; cephalosporinase producing strain, SDA, 18 to 20 hours; read-out: MIC
Protocol: as §1

[9] = tested on: Proteus morganii GN 5407; settings: Morganella morganii, GN5407, cephalosporinase producing strain, SDA, 18 to 20 hours, read-out: MIC
Protocol: as §1

[10] = tested on: Proteus morganii GN 5375; settings: Morganella morganii, GN5375, cephalosporinase producing strain, SDA, 18 to 20 hours, read-out: MIC
Protocol: as §1

[11] = tested on: Proteus vulgaris GN 4413; settings: Proteus vulgaris
Protocol: as §1

[12] = tested on: Serratia marcescens GN 10857; settings: Serratia marcescens, GN10857, Serratia marcescens GN 10857; cephalosporinase producing strain, SDA, 18 to 20 hours; read-out: MIC
Protocol: as §1

[13] = tested on: Providencia rettgeri GN 5284; settings: GN5284, cephalosporinase producing strain, SDA, 18 to 20 hours, read-out: MIC
Protocol: as §1

[14] = tested on: Escherichia coli GN 5482; settings: GN5482, cephalosporinase producing strain, SDA, 18 to 20 hours, read-out: MIC
Protocol: as §1

[15] = tested on: Proteus vulgaris GN 7919; settings: cephalosporinase producing strain, SDA, 18 to 20 hours
Protocol: as §1

[16] = tested on: Citrobactor freundii GN 7391; settings: cephalosporinase producing strain, SDA, 18 to 20 hours
Protocol: as §1

[17] = tested on: Pseudomonas aeruginosa GN 10362; settings: GN10362, cephalosporinase producing strain, SDA, 18 to 20 hours, read-out: MIC
Protocol: as §1

[18] = tested on: Escherichia coli No. 1501; settings: cephalosporinase producing strain, SDA, 18 to 20 hours, read-out: MIC
Protocol: as §1

[19] = tested on: Enterobacter cloacae GN 7471; settings: GN7471, cephalosporinase producing strain, SDA, 18 to 20 hours, read-out: MIC
Protocol: as §1

[20] = tested on: Pseudomonas aeruginosa GN 10367; settings: Pseudomonas aeruginosa, GN10367, Pseudomonas aeruginosa GN 10367; cephalosporinase producing strain, SDA, 18 to 20 hours
Protocol: as §1

[21] = tested on: Providencia rettgeri GN 4430; settings: GN4430, cephalosporinase producing strain, SDA, 18 to 20 hours, read-out: MIC
Protocol: as §1

[22] = tested on: Enterobacter cloacae GN 5797; settings: GN5797, cephalosporinase producing strain, SDA, 18 to 20 hours, read-out: MIC
Protocol: as §1

[23] = tested on: Serratia marcescens L-82; settings: L82, cephalosporinase producing strain, SDA, 18 to 20 hours, read-out: MIC
Protocol: as §1

[24] = tested on: Enterobacter cloacae GN 7467; settings: GN7467; Enterobacter cloacae GN 7467; cephalosporinase producing strain, SDA, 18 to 20 hours; read-out: MIC
Protocol: as §1

[25] = tested on: Serratia marcescens L-65; settings: Serratia marcescens, L65, Serratia marcescens L-65; cephalosporinase producing strain, SDA, 18 to 20 hours; read-out: MIC
Protocol: as §1

Measured: MIC

C[C@@H](O)[C@H]1C(=O)N2C(C(=O)[O-])=C(SCc3cs[n+](C)n3)[C@H](C)[C@H]12 [Amorphous Compd. (14), (1R,5S,6S)-2-[(2-methyl-1,2,3-thiadiazolium-4-yl)methyl]thio-6-[(R)-1-hydroxyethyl]-1-methyl-carbapenem-3-carboxylate]
0.2 µg/mL: [23]
1.56 µg/mL: [16] | [20]
3.13 µg/mL: [1]; Proteus morganii GN 5307 | [10] | [24]
0.78 µg/mL: [3] | [6] | [17] | [25]
6.25 µg/mL: [8] | [9] | [11]; GN4413, Proteus vulgaris GN 4413, cephalosporinase producing strain, SDA, 18 to 20 hours, read-out: MIC | [12] | [15]; Proteus vulgaris GN 7919
0.39 µg/mL: [4] | [5] | [7] | [13] | [21]
0.05 µg/mL: [2] | [14] | [18]
0.1 µg/mL: [19] | [22]

C[C@@H](O)[C@H]1C(=O)N2C(C(=O)O)=C(SCCN=CN)C[C@H]12 [Imipenem, imipenem]
6.25 µg/mL: [11]; GN4413
0.2 µg/mL: [7] | [19] | [23]
1.56 µg/mL: [20]
0.1 µg/mL: [2] | [14] | [18]
0.78 µg/mL: [1]; Morganella morganii, GN5307, Proteus morganii GN 5307, read-out: MIC | [6] | [16] | [17] | [24]
3.13 µg/mL: [4] | [8] | [9] | [10] | [12]
0.39 µg/mL: [3] | [5] | [13] | [15]; Proteus vulgaris, GN7919, Proteus vulgaris GN 7919, read-out: MIC | [21] | [22] | [25]
